One assay addresses T1, dmJMJD7 (Drosophila melanogaster, UniProt Q9VU77).
T1 construct: gene JMJD7; full-length dmJMJD7, aa 1–316, N-terminally His6-tagged
Kind of assay: crystal structure; SPE-MS inhibition assay with DRG1 peptide. The assay is classed as biochemical.
T1 sequence (Q9VU77 whole entry, the tested form may be a part): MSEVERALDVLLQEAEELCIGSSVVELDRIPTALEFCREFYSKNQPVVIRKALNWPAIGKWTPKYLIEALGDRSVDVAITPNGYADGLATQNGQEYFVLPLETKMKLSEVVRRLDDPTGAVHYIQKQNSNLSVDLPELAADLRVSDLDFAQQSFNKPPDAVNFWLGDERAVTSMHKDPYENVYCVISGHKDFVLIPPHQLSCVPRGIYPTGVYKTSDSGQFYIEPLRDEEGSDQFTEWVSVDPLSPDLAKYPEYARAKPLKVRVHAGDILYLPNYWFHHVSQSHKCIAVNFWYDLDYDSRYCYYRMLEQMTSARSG
As usually defined, the IC50 is the concentration needed to halve the response being measured. Lower therefore signals higher potency. `O=C(O)c1ccnc(C(=O)O)c1` [2,4-PDCA, pyridine-2,4-dicarboxylate] displayed an IC50 of 1.34 µM. That is a single-digit micromolar value.
As to `C[C@@H](NC(=O)C(=O)O)C(=O)O` [NODA, N-oxalyl-D-alanine], half-maximal inhibition (IC50) required 4.14 µM.
In turn, `O=C(O)CNC(=O)C(=O)O` [NOG, N-oxalylglycine] showed an IC50 of 0.3 µM.

The next assay deals with T1, dmJMJD7. Kind of assay: crystal structure. Format: binding.
For the compound `O=C(O)C(=O)N[C@H](Cc1ccccc1)C(=O)O` [NOFD, N-oxalyl-D-phenylalanine], the crystal structure result is reported as “dmJMJD7.N-oxalyl-D-phenylalanine (PDB: 7YXL)”.
With `O=C(O)CCC(=O)O` [succinate], the crystal structure result was “dmJMJD7.succinate (PDB: 7YXH)”.
Same read-out and setting: with `O=C(O)CCC(=O)C(=O)O` [2OG, 2-oxoglutarate] the entry was “crystals of His6-dmJMJD7.Mn complexed with its co-substrate 2OG or co-product succinate”.
